What was measured:
[1] = test system: MMP-1 expression in human dermal fibroblasts (HDFs); test: MMP-1 expression by western blot of culture supernatants of UV-exposed human dermal fibroblasts pretreated with kinase inhibitors; type: cell-based; conditions: UVB 60 mJ/cm^2, medium collected 24 hours after exposure
Protocol: Human dermal fibroblasts AG04058 (Coriell Institute for Medical Research, Camden, N.J.) were cultured and maintained in MEM containing glucose (4.5 mg/ml), glutamine (2 mM), […], and 10% heat-inactivated fetal bovine serum. For cell transfection, Fugene 6 transfection kit (Roche, Germany) was used to deliver Syk cDNA and the Saint-Red siRNA delivery system (Synvolux Therapeutics B.V., The Netherlands) was chosen to transfect Syk siRNA and control siRNA (Santa Cruz Biotechnology Inc., Santa Cruz, Calif.) into the cells. Cells were exposed to UVB (312 nm) (60 mJ/cm^2) by a Stratalinker UV Crosslinker (Stratagene, La Jolla, Calif.). Cell supernatants were collected 24 hrs after UV exposure, and prepared for MMP-1 expression assay.
Twenty-four hours after UV exposure, the culture media of HDFs were collected for MMP-1 assay. Based on OD280 measurement, equal amounts of proteins from the supernatants were mixed with 2× sample buffer, boiled for 5 min and chilled on ice. Samples were then subjected to […] and electrophoretically transferred to nitrocellulose membrane. The membrane was blocked with 5% dry milk in washing buffer. MMP-1 was detected with anti-MMP-1 antibody, and the results were visualized by an ECL detection system. For Syk protein and MAPK activation western blot assays, cell pellets were lysed in 1× Triton X-100 lysis buffer (1% Triton X-100, 5 mmol/L Hepes—KOH, pH 7.4) in the presence of protease and phosphatase inhibitors containing 5 mM EGTA, 3 mM Na orthovanadate, 2 mM phenylmethylsulfonyl fluoride, and […] aprotinin and leupeptin (Sigma Chemical Co., St. Louis, Mo.). Following centrifugation at 12,000 rpm for 30 min at 4° C., the cleared lysates were subjected to the same procedure as that followed for MMP-1 assay. Syk protein and MAPK activation were detected with anti-Syk antibody and anti-phospho-MAPK antibodies, respectively, by western blot. For the activation of Syk kinase assay, briefly, cell lysates were precleared by incubation with protein G plus agarose (Santa Cruz Biotechnology, Inc.), and then incubated overnight at 4° C. with anti-Syk antibody. Immune complexes would bind to protein G plus agarose in the lysis buffer. The agarose beads were washed three times with lysis buffer and the adsorbed proteins were eluted into the sample buffer. Tyrosine phosphorylation of Syk kinase (Syk activation) was determined with anti-phosphotyrosine antibody by western blot.
Human fibroblast cells (AG04058) were seeded into 24-well tissue culture dishes with MEM medium one day before the assay. Specific inhibitors for each kinase were added into each different well as indicated (FIG. 4). […]
The dose-response of piceatannol inhibition was assessed in HDFs exposed to UVB (60 mJ/cm^2) (FIG. 9B).

[2] = test system: UV induced apoptosis in mouse skin; conditions: from cited literature; cited from earlier work

## Oc1cc(O)cc(/C=C/c2ccc(O)c(O)c2)c1 [piceatannol]
[1]; piceatannol 1 μg/ml
  inhibition of MMP-1 expression (western blot, image-density analysis): no inhibition
[1]; piceatannol 5 μg/ml
  inhibition of MMP-1 expression (western blot, image-density analysis): no inhibition
[1]; piceatannol 10 μg/ml
  inhibition of MMP-1 expression (western blot, image-density analysis): 20%
[1]; piceatannol 25 μg/ml
  inhibition of MMP-1 expression (western blot, image-density analysis): 63%

## Oc1ccc(-c2nc(-c3ccncc3)c(-c3ccc(F)cc3)[nH]2)cc1 [SB202190]
[2]
  UV induced apoptosis in mouse skin, in words: blocked
